US20030044776A1, “COMPOSITIONS AND METHODS FOR IDENTIFYING AGENTS THAT ALTER MITOCHONDRIAL PERMEABILITY TRANSITION PORES” (priority 1998, published 2003)

Key:
Type in all cases: cell-based, human
[1] = test system: SH-SY5Y cybrid cells (control and AD); experiment: Mitochondrial permeability transition (MPT) assay using DASPMI fluorescence loss rate after ionomycin induction
Experimental: The fluorescent mitochondria-selective dye 2-,4-dimethylaminostyryl-N-methylpyridinium (DASPMI, Molecular Probes, Inc., Eugene, Oreg.) is dissolved in Hank's balanced salt solution (HBSS; Life Technologies, Rockville, Md.) at 1 mM and diluted to 25 μM in warm HBSS. […]
Fluorescence of each microculture in the 96-well plate is quantified immediately using a Molecular Devices fmax fluorimetric plate reader (Molecular Devices Corp., Sunnyvale, Calif.; excitation wavelength=485 nm; emission wavelength=590 nm) and zero-time (t0) fluorescence is recorded. […] Fluorescence decay of DASPMI-loaded, ionomycin induced cells is monitored as a function of time from 0-500 seconds following addition of ionomycin. The maximum negative slope (V-max) is calculated from a subset of the data using analysis software provided by the fluorimetric plate reader manufacturer. In addition, the initial and final signal intensities are determined and the effects of candidate agents that may affect MPT on the rate of signal decay are quantified.
The method described in Example 1 was employed to monitor MPT induced by the calcium ionophore ionomycin and inhibition thereof by cyclosporin. […] Fluorescence detection and monitoring of fluorescence decay as a rate loss function were as described in Example 1. […]

[2] = test system: caspase-3 activity in AD cybrids or MixCon cybrids; experiment: Caspase-3 activation (DEVD-AMC cleavage) following ionomycin induced MPT; details: FIG. 11
Experimental: In 96-well microculture plates, cultured human cybrid neuroblastoma SH-SY5Y cells constructed using mitochondria from an individual known to have AD, or from a normal control subject, were cultured in HBSS followed by the addition of atractyloside (as described in Example 5) or ionomycin (as described in Example 1). Control cultures, to which neither atractyloside nor ionomycin were added, were prepared in parallel. Membrane potential was monitored from about 15 minutes (which was, in most cases, sufficient for purposes of the assay) to about 45 to 60 minutes, wherein “about” indicates ±10%.
Caspase-3 activity was assessed by diluting the fluorogenic peptide substrate acetyl-Asp-Glu-Val-Asp (SEQ ID NO:2) conjugated to AMC (7-amino-4-methylcoumarin; the synthetic peptide is referred to as DEVD-AMC; CalBiochem-Novabiochem Corp., San Diego, Calif.; see Walker et al., 1994 Cell 78:343, and Thornberry et al., 1992 Nature 356:768) from a DMSO stock solution into culture media to a final concentration of 20 μM for uptake by cells. Substrate cleavage liberating the AMC fluorophore was measured continuously using a Cytofluor fluorimetric plate reader (model #2350, Millipore Corp., Bedford, Mass.; excitation wavelength=435 nm; emission wavelength=460 nm). Data are presented as ΔRFU (relative fluorescence units). […]

[3] = test system: SH-SY5Y neuroblastoma cells; experiment: Apoptosis morphology (membrane blebbing) by light microscopy after ionomycin induced MPT; details: four hours
Experimental: Control SH-SY5Y cells, and control (normal) and AD cybrids produced from SH-SY5Y cells were as described above, and were induced to undergo MPT as described in Example 1. Some cultured cells were pretreated with 1-phenylbiguanide (I) as described in Example 8. Briefly, SH-SY5Y neuroblastoma cells (1×10^5 cells) were rinsed with one volume 1×PBS, and then treated with 10 μM ionomycin (Calbiochem, San Diego, Calif.) in DMEM supplemented with 10% fetal calf serum (FCS) (Gibco, Life Technologies, Grand Island, N.Y.) for 10 minutes, followed by two washes with DMEM (10% FCS). […]
The results using parental SH-SY5Y cells are illustrated in FIG. 10.

N.N.N.N.N.N.N.N.N.N.N.N.N.N.[Cl-].[Cl-].[Cl-].[Cl-].[Cl-].[Cl-].[O-2].[O-2].[Ru+3].[Ru+3].[Ru+4] [ruthenium red]
DASPMI fluorescence loss rate ([1]; 10 nM ruthenium red for 10 minutes prior to MPT induction with ionomycin (5 μM), control and AD cybrid cell lines, FIG. 3): significantly greater in cybrid cells that have not been treated with ruthenium red

N=C(N)NC(=N)Nc1ccccc1 [1-phenylbiguanide]
induction of caspase-3 activity after ionomycin induced MPT ([2]; pretreated with (I) as in Example 8 (2 mM, 20 min), MPT induced by 25 μM ionomycin): inhibited
apoptosis morphology, % of cells ([3]; parental SH-SY5Y cells pretreated with (I), then 10 μM ionomycin, FIG. 10C): 10-15%
rate of loss of mitochondrial membrane potential (DASPMI loss rate) ([1]; 2 mM 1-phenylbiguanide for 20 min prior to MPT induction with 1 μM ionomycin, two AD and one control cybrid cell lines, p<0.001, FIG. 9): decreased the rate of loss of mitochondrial membrane potential

C[C@H](CCC(=O)O)C[C@H](C)C[C@H](C)C(=O)/C=C(\O)[C@H](C)C[C@H](C)C/C=C/[C@@H](C)[C@@H](O)[C@@H](C)[C@@H](O)C[C@@H]1CC[C@@](C)([C@H]2CC[C@@](C)([C@@H](C)O)O2)O1 [ionomycin]
caspase-3 activity induced by MPT induction ([2]; 25 μM ionomycin): induces significant caspase-3 activity
cells exhibiting membrane blebbing ([3]; parental SH-SY5Y cells, 10 μM ionomycin, untreated cells <5%, FIG. 10B): approximately 80%
